SMILES strings stand for the structures.

The subject of assay [1] is Non Small Cell Lung Cancer (NSCLC) tissue. The assay is described as follows: PamChip kinase activity of NSCLC tumor tissue lysates with and without inhibitor. It counts as biochemical. The conditions noted are these: 1 μmol/L inhibitor, short vs long survival patients, data not shown.
Assay [2] concerns UT-SCC-9, UT-SCC-27, UT-SCC-54C, and UT-SCC-76. The assay is described as follows: PamChip kinase inhibition profiles of 4 patient derived head and neck squamous cell carcinoma cell lines. Type of assay: biochemical. The conditions noted are these: selected set of peptides, FIG. 3b.
Procedure: Cells were harvested and were lysed in Mammalian Extraction Buffer (M-PER, Pierce) containing phosphatase and protease inhibitors (HALT, Pierce). Five microliter of the lysis solution was pipetted into a reaction mixture composed of 1×ABL buffer (New England Biolabs, cat.nr B6050S), 0.1% Bovine Serum Albumin, 100 μM ATP, 20 μg/ml phosphotyrosine antibody to an end volume of 40 microliter. Before incubation a blocking step was carried out on the substrate arrays with 0.2% bovine serum albumin. […] Real time data were obtained by measuring fluorescence of the bound anti-phosphotyrosine antibody after each 5 cycles. Image quantification and data processing was conducted with dedicated Pamgene software (Evolve and Bionavigator).
The 4 cell lines chosen, UT-SCC-9, UT-SCC-27, UT-SCC-54C, and UT-SCC-76 are patient derived cell lines, known to respond differently to radiation (in a model for therapy in head and neck cancer, squamous cell carcinomas, especially). […] The data shown are from a selected set of peptides of which the ratios of phosphorylation in the absence (0) and presence of the inhibitor are represented.

For `COc1cc2ncnc(Nc3ccc(F)c(Cl)c3)c2cc1OCCCN1CCOCC1` [Gefitinib], the “differences between the phosphorylation profiles with and without the protein kinase inhibitor” value in assay [1] is reported as “a number of essential differences”.
On to `Cc1ccc(-c2nn(C(C)(C)C)c3ncnc(N)c23)cc1` [PP1], for which, in assay [2], the “inhibition profiles (ratios of phosphorylation in the absence and presence of the inhibitor), differences between cell lines” value is on record as “pronounced differences”.
